Laboratory results: patent US12227500B2, “Substituted pyrrolo[2,3-b]pyridines for suppressing toxic endoplasmic reticulum stress” (THE TRUSTEES OF COLUMBIA UNIVERSITY IN THE CITY OF NEW YORK, priority 2018, dated 2025)
Where two headings read alike, the source gives them in different places.

Tests used:
Experiment in all cases: Radiolabeled ATP kinase assay, panel of 371 kinases (Table S6)
Type in all cases: biochemical
[1] = target: T1, panel of 371 human kinases (Homo sapiens, UniProt O00311); conditions: CDC7/DBF4; 0.1 μM; 10 μM ATP; read-out: % Enzyme Activity (relative to DMSO controls)
T1 construct: purchased Reaction Biology Corp
Excerpt: (§1) ; FIG. 38C). […]. Further targeted analyses, such as genetic knock-down or knock-out, may be warranted to parse the role of these additional kinases in our model of neurodegeneration.

[2] = target: T2, panel of 371 human kinases (Homo sapiens, UniProt P06213); conditions: IR; 0.1 μM; 10 μM ATP; read-out: % Enzyme Activity (relative to DMSO controls)
T2 construct: purchased Reaction Biology Corp
Excerpt: as §1

[3] = target: T3, panel of 371 human kinases (Homo sapiens, UniProt P22455); conditions: FGFR4; 0.1 μM; 10 μM ATP; read-out: % Enzyme Activity (relative to DMSO controls)
T3 construct: purchased Reaction Biology Corp
Excerpt: as §1

[4] = target: T4, panel of 371 human kinases (Homo sapiens, UniProt P31749); conditions: AKT1; 0.1 μM; 10 μM ATP; read-out: % Enzyme Activity (relative to DMSO controls)
T4 construct: purchased Reaction Biology Corp
Excerpt: as §1

[5] = target: T5, panel of 371 human kinases (Homo sapiens, UniProt P37173); conditions: TGFBR2; 0.1 μM; 10 μM ATP; read-out: % Enzyme Activity (relative to DMSO controls)
T5 construct: purchased Reaction Biology Corp
Excerpt: as §1

[6] = target: T6, panel of 371 human kinases (Homo sapiens, UniProt P49674); conditions: CK1epsilon; 0.1 μM; 10 μM ATP; read-out: % Enzyme Activity (relative to DMSO controls)
T6 construct: purchased Reaction Biology Corp
Excerpt: as §1

[7] = target: T7, panel of 371 human kinases (Homo sapiens, UniProt P49841); conditions: GSK3b; 0.1 μM; 10 μM ATP; read-out: % Enzyme Activity (relative to DMSO controls)
T7 construct: purchased Reaction Biology Corp
Excerpt: as §1

[8] = target: T8, panel of 371 human kinases (Homo sapiens, UniProt P54760); conditions: EPHB4; 0.1 μM; 10 μM ATP; read-out: % Enzyme Activity (relative to DMSO controls)
T8 construct: purchased Reaction Biology Corp
Excerpt: as §1

[9] = target: T9, panel of 371 human kinases (Homo sapiens, UniProt P78362); conditions: SRPK2; 0.1 μM; 10 μM ATP; read-out: % Enzyme Activity (relative to DMSO controls)
T9 construct: purchased Reaction Biology Corp
Excerpt: as §1

[10] = target: T10, panel of 371 human kinases (Homo sapiens, UniProt Q00534); conditions: 0.1 μM, 10 μM ATP, read-out: % Enzyme Activity (relative to DMSO controls)
T10 construct: purchased Reaction Biology Corp
Excerpt: as §1

[11] = target: T11, panel of 371 human kinases (Homo sapiens, UniProt Q13627); conditions: DYRK1/DYRK1A; 0.1 μM; 10 μM ATP; read-out: % Enzyme Activity (relative to DMSO controls)
T11 construct: purchased Reaction Biology Corp
Excerpt: as §1

[12] = target: T12, panel of 371 human kinases (Homo sapiens, UniProt Q15208); conditions: STK38/NDR1; 0.1 μM; 10 μM ATP; read-out: % Enzyme Activity (relative to DMSO controls)
T12 construct: purchased Reaction Biology Corp
Excerpt: as §1

[13] = target: T13, panel of 371 human kinases (Homo sapiens, UniProt Q16513); conditions: PKN2/PRK2; 0.1 μM; 10 μM ATP; read-out: % Enzyme Activity (relative to DMSO controls)
T13 construct: purchased Reaction Biology Corp
Excerpt: as §1

[14] = target: T14, panel of 371 human kinases (Homo sapiens, UniProt Q16566); conditions: CAMK4; 0.1 μM; 10 μM ATP; read-out: % Enzyme Activity (relative to DMSO controls)
T14 construct: purchased Reaction Biology Corp
Excerpt: as §1

[15] = target: T15, panel of 371 human kinases (Homo sapiens, UniProt Q6P3R8); conditions: NEK5; 0.1 μM; 10 μM ATP; read-out: % Enzyme Activity (relative to DMSO controls)
T15 construct: purchased Reaction Biology Corp
Excerpt: as §1

[16] = target: T16, panel of 371 human kinases (Homo sapiens, UniProt Q8N752); conditions: CK1a1L; 0.1 μM; 10 μM ATP; read-out: % Enzyme Activity (relative to DMSO controls)
T16 construct: purchased Reaction Biology Corp
Excerpt: as §1

[17] = target: T17, panel of 371 human kinases (Homo sapiens, UniProt Q8NG66); conditions: NEK11; 0.1 μM; 10 μM ATP; read-out: % Enzyme Activity (relative to DMSO controls)
T17 construct: purchased Reaction Biology Corp
Excerpt: as §1

[18] = target: T18, panel of 371 human kinases (Homo sapiens, UniProt Q8WTQ7); conditions: GRK7; 0.1 μM; 10 μM ATP; read-out: % Enzyme Activity (relative to DMSO controls)
T18 construct: purchased Reaction Biology Corp
Excerpt: as §1

[19] = target: T19, panel of 371 human kinases (Homo sapiens, UniProt Q8WXR4); conditions: MYO3b; 0.1 μM; 10 μM ATP; read-out: % Enzyme Activity (relative to DMSO controls)
T19 construct: purchased Reaction Biology Corp
Excerpt: as §1

[20] = target: T20, panel of 371 human kinases (Homo sapiens, UniProt Q96NX5); conditions: CAMK1g; 0.1 μM; 10 μM ATP; read-out: % Enzyme Activity (relative to DMSO controls)
T20 construct: purchased Reaction Biology Corp
Excerpt: as §1

[21] = target: T21, panel of 371 human kinases (Homo sapiens, UniProt Q96RR4); conditions: CAMKK2; 0.1 μM; 10 μM ATP; read-out: % Enzyme Activity (relative to DMSO controls)
T21 construct: purchased Reaction Biology Corp
Excerpt: as §1

[22] = target: T22, panel of 371 human kinases (Homo sapiens, UniProt Q9H4A3); conditions: WNK1; 0.1 μM; 10 μM ATP; read-out: % Enzyme Activity (relative to DMSO controls)
T22 construct: purchased Reaction Biology Corp
Excerpt: as §1

[23] = target: T23, panel of 371 human kinases (Homo sapiens, UniProt Q9UHD2); conditions: TBK1; 0.1 μM; 10 μM ATP; read-out: % Enzyme Activity (relative to DMSO controls)
T23 construct: purchased Reaction Biology Corp
Excerpt: as §1

[24] = target: T24, panel of 371 human kinases (Homo sapiens, UniProt Q9Y243); conditions: AKT3; 0.1 μM; 10 μM ATP; read-out: % Enzyme Activity (relative to DMSO controls)
T24 construct: purchased Reaction Biology Corp
Excerpt: as §1

T10 sequence (Q00534 whole entry): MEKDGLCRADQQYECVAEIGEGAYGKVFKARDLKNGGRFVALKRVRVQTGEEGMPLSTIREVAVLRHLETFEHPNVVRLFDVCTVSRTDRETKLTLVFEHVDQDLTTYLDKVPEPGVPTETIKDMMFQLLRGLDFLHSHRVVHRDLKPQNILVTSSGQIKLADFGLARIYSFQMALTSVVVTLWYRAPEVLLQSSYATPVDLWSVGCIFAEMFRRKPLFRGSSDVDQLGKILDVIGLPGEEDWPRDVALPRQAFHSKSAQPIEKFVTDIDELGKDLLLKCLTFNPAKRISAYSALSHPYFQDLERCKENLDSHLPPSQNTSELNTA
T15 sequence (Q6P3R8 whole entry): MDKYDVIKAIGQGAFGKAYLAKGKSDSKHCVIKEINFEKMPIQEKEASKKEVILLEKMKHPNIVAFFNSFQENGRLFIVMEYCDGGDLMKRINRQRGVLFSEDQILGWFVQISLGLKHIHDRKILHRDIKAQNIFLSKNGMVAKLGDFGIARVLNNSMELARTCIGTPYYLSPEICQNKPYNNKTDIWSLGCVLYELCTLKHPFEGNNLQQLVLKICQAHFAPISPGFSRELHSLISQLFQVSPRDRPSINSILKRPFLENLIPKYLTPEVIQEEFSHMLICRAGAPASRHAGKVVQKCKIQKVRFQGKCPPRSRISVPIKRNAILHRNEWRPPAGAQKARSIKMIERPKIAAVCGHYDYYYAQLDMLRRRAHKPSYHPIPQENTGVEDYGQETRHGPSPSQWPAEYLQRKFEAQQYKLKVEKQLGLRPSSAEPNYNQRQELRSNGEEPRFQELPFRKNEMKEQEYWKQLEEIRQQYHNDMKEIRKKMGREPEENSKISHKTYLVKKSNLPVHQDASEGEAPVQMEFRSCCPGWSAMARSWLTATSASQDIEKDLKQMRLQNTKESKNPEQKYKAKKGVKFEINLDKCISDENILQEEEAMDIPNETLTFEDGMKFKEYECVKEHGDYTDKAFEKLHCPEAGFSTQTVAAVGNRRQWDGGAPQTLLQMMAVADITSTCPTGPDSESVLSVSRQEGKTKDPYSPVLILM
T21 sequence (Q96RR4 whole entry): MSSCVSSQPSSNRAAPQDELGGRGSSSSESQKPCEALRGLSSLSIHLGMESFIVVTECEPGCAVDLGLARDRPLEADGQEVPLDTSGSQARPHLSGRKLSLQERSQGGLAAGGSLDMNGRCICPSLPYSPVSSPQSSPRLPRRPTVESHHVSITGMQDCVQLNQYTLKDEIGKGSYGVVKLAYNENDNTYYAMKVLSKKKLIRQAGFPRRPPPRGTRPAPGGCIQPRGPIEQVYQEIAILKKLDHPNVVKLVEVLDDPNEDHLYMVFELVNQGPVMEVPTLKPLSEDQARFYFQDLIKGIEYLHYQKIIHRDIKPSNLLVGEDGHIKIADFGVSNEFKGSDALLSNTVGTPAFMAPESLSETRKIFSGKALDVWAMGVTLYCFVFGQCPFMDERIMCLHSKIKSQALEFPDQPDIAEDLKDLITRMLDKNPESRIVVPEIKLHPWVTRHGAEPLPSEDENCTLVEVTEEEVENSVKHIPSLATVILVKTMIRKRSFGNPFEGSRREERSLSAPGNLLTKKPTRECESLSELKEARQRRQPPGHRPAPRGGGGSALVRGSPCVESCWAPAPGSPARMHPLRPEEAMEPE
T20 sequence (Q96NX5 whole entry): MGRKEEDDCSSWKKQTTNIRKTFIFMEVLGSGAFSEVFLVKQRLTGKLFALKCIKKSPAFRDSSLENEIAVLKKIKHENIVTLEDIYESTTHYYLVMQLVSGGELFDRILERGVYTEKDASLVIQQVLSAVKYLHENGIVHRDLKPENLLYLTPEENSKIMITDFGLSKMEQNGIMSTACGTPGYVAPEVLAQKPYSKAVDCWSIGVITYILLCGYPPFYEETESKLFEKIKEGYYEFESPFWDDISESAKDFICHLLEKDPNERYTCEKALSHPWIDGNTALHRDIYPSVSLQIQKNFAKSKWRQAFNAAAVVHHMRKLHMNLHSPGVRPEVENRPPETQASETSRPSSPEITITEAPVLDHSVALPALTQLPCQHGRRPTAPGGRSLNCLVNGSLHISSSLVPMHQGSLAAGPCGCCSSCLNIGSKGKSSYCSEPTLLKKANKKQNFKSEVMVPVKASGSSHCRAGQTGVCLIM
T24 sequence (Q9Y243 whole entry): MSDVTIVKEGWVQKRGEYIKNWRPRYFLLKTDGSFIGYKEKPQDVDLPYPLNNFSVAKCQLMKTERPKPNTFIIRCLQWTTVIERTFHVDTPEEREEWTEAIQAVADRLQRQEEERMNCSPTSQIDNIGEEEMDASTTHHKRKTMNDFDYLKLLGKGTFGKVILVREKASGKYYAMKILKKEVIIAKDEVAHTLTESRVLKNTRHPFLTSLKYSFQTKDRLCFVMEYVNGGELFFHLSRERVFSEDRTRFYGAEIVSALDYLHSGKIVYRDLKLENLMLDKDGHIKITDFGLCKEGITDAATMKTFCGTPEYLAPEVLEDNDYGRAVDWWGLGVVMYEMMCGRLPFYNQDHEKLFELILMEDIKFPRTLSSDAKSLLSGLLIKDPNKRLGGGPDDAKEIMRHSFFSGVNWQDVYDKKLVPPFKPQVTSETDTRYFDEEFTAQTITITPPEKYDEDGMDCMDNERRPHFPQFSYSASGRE
T7 sequence (P49841 whole entry): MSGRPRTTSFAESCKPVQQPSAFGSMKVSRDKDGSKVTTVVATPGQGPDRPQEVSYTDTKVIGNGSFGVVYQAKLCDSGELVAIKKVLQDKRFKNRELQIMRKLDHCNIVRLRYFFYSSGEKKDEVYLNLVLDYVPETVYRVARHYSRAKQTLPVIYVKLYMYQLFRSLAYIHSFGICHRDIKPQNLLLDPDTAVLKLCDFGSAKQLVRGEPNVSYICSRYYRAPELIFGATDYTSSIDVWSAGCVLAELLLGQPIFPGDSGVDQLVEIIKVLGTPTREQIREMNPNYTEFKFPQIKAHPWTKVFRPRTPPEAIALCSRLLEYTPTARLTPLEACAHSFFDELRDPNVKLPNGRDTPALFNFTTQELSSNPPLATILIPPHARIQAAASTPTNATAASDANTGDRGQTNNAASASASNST
T13 sequence (Q16513 whole entry): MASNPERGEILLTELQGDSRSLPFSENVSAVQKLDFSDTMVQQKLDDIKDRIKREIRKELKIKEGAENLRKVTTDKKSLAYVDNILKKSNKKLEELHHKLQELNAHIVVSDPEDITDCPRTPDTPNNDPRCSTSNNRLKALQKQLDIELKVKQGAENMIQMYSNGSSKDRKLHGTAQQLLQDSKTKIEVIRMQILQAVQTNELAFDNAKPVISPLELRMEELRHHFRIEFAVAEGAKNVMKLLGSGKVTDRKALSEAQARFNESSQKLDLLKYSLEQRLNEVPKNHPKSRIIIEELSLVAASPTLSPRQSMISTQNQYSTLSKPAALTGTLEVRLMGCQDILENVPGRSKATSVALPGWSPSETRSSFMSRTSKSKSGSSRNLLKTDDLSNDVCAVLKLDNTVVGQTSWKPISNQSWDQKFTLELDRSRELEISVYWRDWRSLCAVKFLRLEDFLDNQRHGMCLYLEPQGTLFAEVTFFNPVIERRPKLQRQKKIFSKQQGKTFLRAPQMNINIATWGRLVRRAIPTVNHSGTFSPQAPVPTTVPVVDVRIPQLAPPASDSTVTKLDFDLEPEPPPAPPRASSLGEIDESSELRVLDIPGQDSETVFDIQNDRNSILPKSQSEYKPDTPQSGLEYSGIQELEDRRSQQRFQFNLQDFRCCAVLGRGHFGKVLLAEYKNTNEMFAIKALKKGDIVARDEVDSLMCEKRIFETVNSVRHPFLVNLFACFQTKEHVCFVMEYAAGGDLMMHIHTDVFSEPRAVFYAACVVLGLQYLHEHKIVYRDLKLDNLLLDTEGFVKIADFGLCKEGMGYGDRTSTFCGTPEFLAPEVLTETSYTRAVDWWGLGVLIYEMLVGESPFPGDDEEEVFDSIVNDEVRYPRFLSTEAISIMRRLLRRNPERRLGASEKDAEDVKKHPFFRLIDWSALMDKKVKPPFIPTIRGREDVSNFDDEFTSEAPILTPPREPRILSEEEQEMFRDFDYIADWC
T4 sequence (P31749 whole entry): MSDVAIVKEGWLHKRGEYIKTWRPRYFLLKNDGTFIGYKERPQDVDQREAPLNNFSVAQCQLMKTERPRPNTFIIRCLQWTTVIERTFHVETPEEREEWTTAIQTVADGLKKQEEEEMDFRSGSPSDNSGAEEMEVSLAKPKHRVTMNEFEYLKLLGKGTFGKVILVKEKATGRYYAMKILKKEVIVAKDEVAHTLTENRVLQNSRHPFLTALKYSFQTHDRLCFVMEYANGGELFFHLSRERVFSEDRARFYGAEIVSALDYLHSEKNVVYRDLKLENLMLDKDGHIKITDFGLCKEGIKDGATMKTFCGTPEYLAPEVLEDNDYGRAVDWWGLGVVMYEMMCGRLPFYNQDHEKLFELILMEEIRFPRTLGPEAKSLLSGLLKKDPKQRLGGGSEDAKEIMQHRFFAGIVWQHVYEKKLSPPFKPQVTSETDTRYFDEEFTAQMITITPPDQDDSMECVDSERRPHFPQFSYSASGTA
T16 sequence (Q8N752 whole entry): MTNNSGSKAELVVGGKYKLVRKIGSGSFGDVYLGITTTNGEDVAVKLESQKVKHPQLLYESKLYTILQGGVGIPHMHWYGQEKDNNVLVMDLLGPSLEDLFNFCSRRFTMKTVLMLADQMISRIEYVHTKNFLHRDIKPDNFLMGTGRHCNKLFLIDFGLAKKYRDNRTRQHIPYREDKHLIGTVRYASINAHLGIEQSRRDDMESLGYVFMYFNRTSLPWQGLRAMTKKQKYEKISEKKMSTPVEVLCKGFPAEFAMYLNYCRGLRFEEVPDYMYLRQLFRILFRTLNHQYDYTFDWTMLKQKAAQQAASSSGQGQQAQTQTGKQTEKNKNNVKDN

Row | SMILES | remaining activity at 0.1 µM [1] [%] | remaining activity at 0.1 µM [2] [%] | remaining activity at 0.1 µM [3] [%] | remaining activity at 0.1 µM [4] [%] | remaining activity at 0.1 µM [5] [%] | remaining activity at 0.1 µM [6] [%] | remaining activity at 0.1 µM [7] [%] | remaining activity at 0.1 µM [8] [%] | remaining activity at 0.1 µM [9] [%] | remaining activity at 0.1 µM ([10]; CDK6/cyclin D1) [%] | remaining activity at 0.1 µM ([10]; CDK6/cyclin D3) [%] | remaining activity at 0.1 µM [11] [%] | remaining activity at 0.1 µM [12] [%] | remaining activity at 0.1 µM [13] [%] | remaining activity at 0.1 µM [14] [%] | remaining activity at 0.1 µM [15] [%] | remaining activity at 0.1 µM [16] [%] | remaining activity at 0.1 µM [17] [%] | remaining activity at 0.1 µM [18] [%] | remaining activity at 0.1 µM [19] [%] | other results
1 | CN1CCN(Cc2ccc(-c3cnc4[nH]cc(-c5ccc6[nH]ccc6c5)c4c3)cc2)CC1 [Compound 1, 3-(1H-Indol-5-yl)-5-(4-((4-methylpiperazin-1-yl)methyl)phenyl)-1H-pyrrolo[2,3-b]pyridine, reference compound] | 100 | 100 | 97.2 | 97 | 106 | 117 | 99 | 91.6 | 80.3 | 63.1 | 92.2 | 52.4 | 88.1 | 81.6 | 95.1 | 87.1 | 94.8 | 107 | 101 | 80.8 | remaining activity at 0.1 µM [20]: 97.8%; remaining activity at 0.1 µM [21]: 97.7%; remaining activity at 0.1 µM [22]: 117%; remaining activity at 0.1 µM [23]: 82.8%; remaining activity at 0.1 µM [24]: 98.4%
2 | OCCN1CCN(Cc2ccc(-c3cnc4[nH]cc(-c5cccc(Cl)c5)c4c3)cc2)CC1 [Compound 12k, 2-(4-(4-(3-(3-Chlorophenyl)-1H-pyrrolo[2,3-b]pyridin-5-yl)benzyl)piperazin-1-yl)ethan-1-ol] | 98.3 | 112 | 100 | 101 | 88 | 103 | 89.6 | 97.5 | 93.6 | 30.7 | 68.2 | 40.7 | 71.9 | 59.5 | 100 | 92.4 | 107 | 101 | 97.1 | 40.7 | remaining activity at 0.1 µM [20]: 101%; remaining activity at 0.1 µM [21]: 94.9%; remaining activity at 0.1 µM [22]: 100%; remaining activity at 0.1 µM [23]: 75.2%; remaining activity at 0.1 µM [24]: 97.2%
